Assay results published in patent US6858638B2, “Substituted indazoles, compositions containing them, method of production and use” (Aventis Pharma S.A., priority 2002, dated 2005).

Key:
Format in all cases: biochemical
[1] = target: T1, human IGF1R cytoplasmic domain (Homo sapiens, UniProt P08069); test: IGF1R autophosphorylation inhibition, time resolved fluorescence (HTRF) assay; conditions: 10 μM; read-out: IGF1R % inhib at 10 μM
T1 construct: The human IGF1R cytoplasmic domain was cloned; made in house; host or cells: SF21 insect cells (baculovirus)
Summary of the method: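 GST-tagged human IGF1R cytoplasmic domain from SF21 cells incubated with compound in 50 mM Hepes pH 7.5, 5 mM MnCl2, 50 mM NaCl, […] ATP. Autophosphorylation detected by HTRF (Eu-K anti-phosphotyrosine, XL665 anti-GST) after EDTA/KF stop; percentage inhibition versus no-compound control.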

human FAK = target: T2, human FAK (Homo sapiens, UniProt Q05397); test: FAK autophosphorylation inhibition, time resolved fluorescence (HTRF) assay; conditions: 10 μM (values without asterisk); read-out: FAK % inhib at 10 μM
T2 construct: The complete cDNA of human FAK; made in house; host or cells: baculovirus expression system (vector pFastBac HTc)
Summary of the method: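 Autophosphorylation was detected by europium-cryptate anti-pTyr and XL665 anti-His energy transfer, percent inhibition from the 665/620 ratio relative to no-compound wells. Enzyme: His-FAK full length, 6.6 µg/ml, incubated 1 h at 37 °C, pH 7.2, 15 µM ATP.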

human KDR enzyme = target: T3, human KDR enzyme (Homo sapiens, UniProt P35968); test: KDR substrate (PLCγ) phosphorylation, scintillation assay; conditions: 10 μM; read-out: KDR % inhib at 10 μM
T3 construct: The cytoplasmic domain of the human KDR enzyme; GST; made in house; host or cells: SF21 insect cells (baculovirus)
Summary of the method: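 Values are percent inhibition relative to the compound-free control, read by scintillation counting of 33P incorporation after EDTA stop. Baculovirus/SF21-expressed GST-KDR cytoplasmic domain (100 ng) acted for 1 h at 37 °C in pH 7.2 MOPS kinase buffer. The substrate was GST-PLCγ SH2-SH3 (2 μg), added with γ33P-ATP and 2 μM unlabeled ATP.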

Aurora2 kinase = target: T4, Aurora2 kinase (Homo sapiens, UniProt O14965); test: Aurora2 kinase radioactivity scintillation assay using nickel chelate (NuMA substrate); conditions: 10 μM; read-out: Aurora2 % inhib at 10 μM
T4 construct: A complete recombinant Aurora2 enzyme; His tag (N); made in house; host or cells: E. coli
T4 sequence (O14965 1-403): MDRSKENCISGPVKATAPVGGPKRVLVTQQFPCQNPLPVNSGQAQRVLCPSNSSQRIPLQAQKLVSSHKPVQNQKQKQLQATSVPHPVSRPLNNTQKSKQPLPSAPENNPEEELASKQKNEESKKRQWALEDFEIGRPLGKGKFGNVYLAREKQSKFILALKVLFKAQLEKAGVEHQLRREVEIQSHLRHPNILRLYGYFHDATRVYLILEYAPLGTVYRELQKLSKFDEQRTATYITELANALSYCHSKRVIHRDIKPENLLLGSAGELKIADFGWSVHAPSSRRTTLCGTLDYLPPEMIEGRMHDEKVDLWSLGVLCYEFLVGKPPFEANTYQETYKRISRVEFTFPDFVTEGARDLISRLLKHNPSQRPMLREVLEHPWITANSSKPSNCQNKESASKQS
Summary of the method: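 Read-out is 33P incorporation into His-NuMA (Q1687-H2101, 0.5 μM) captured on nickel chelate, after 30 min at 37 °C with 0.02 μM His-Aurora2 and 1 μM ATP. Expressed as percentage inhibition of uncompounded control activity, background subtracted.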

T3 sequence (P35968 786-1356 limits assumed): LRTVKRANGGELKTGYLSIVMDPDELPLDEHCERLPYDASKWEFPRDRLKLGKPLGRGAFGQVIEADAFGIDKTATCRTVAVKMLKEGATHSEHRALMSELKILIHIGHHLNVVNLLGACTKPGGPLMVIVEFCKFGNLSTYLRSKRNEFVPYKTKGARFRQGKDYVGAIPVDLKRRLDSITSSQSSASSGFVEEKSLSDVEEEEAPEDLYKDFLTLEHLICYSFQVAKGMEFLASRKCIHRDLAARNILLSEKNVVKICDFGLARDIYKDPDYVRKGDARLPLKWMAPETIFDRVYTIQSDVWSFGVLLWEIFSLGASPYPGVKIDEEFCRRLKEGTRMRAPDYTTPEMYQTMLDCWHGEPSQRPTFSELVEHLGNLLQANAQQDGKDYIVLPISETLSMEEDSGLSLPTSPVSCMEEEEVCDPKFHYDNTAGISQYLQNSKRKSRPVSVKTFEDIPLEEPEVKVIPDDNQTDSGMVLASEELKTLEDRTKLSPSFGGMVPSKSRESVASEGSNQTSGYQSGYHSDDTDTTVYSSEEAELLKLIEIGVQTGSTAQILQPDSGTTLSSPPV
T1 sequence (P08069 960-1367 limits assumed): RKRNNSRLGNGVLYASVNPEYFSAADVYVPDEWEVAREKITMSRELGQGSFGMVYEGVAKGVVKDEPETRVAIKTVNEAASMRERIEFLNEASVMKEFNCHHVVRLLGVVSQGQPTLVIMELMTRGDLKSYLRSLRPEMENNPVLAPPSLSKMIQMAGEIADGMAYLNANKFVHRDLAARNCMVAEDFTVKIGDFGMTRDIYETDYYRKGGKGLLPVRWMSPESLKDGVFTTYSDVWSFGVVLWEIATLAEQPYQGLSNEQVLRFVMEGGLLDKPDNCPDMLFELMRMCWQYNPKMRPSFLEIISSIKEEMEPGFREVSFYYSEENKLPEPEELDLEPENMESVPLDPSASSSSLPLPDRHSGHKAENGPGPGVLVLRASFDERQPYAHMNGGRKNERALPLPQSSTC
T2 sequence (Q05397 whole entry): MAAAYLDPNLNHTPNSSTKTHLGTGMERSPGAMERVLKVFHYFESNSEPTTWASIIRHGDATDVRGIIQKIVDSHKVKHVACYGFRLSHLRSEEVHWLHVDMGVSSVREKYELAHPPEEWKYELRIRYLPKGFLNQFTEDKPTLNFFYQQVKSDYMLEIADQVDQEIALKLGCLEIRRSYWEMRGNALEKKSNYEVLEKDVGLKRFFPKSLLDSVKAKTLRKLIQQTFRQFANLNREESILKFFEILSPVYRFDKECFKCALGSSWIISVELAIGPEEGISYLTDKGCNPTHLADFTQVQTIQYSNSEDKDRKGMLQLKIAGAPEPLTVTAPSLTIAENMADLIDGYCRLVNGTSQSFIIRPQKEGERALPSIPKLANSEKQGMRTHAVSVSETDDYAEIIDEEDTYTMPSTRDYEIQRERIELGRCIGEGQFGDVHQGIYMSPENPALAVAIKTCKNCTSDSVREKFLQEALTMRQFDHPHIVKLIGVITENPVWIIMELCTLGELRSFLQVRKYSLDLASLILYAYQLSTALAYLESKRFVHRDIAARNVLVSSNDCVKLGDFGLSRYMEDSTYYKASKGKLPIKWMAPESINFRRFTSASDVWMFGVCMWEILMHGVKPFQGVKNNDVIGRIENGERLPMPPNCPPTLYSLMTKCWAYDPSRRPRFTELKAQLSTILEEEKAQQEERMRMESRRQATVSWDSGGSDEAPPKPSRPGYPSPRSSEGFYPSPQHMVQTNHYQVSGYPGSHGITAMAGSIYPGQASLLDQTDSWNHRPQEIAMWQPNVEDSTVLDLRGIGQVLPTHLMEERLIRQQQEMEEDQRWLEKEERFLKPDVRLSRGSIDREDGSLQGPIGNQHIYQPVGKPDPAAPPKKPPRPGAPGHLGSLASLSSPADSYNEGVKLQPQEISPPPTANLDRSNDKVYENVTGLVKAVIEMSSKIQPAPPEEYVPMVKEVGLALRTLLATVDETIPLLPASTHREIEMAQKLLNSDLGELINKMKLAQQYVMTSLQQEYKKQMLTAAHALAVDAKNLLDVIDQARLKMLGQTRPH

Work on COc1ccc(-c2n[nH]c3ccc(NS(=O)(=O)c4ccccc4S(C)(=O)=O)cc23)cc1OC [Example 198, 2-Methanesulfonyl-N-[3-(3,4-dimethoxyphenyl)-1H-indazol-5-yl]benzenesulfonamide] yielded an inhibition at 10 µM [1] of 76%, an inhibition at 10 µM (human FAK) of 98% and an inhibition at 10 µM (human KDR enzyme) of 66%. The inhibition at 10 µM (Aurora2 kinase) was 98%.

Compound COc1ccc(-c2n[nH]c3ccc(NS(=O)(=O)c4ccccc4S(C)(=O)=O)cc23)c(OC)c1 [Example 199, 2-Methanesulfonyl-N-[3-(2,4-dimethoxyphenyl)-1H-indazol-5-yl]benzenesulfonamide] has an inhibition at 10 µM [1] of 27%, an inhibition at 10 µM (human FAK) of 87% and an inhibition at 10 µM (human KDR enzyme) of 45%. The inhibition at 10 µM (Aurora2 kinase) was 87%.

CS(=O)(=O)c1ccccc1S(=O)(=O)Nc1ccc2[nH]nc(-c3cccc(O)c3)c2c1 [Example 200, N-[3-(3-Hydroxyphenyl)-1H-indazol-5-yl]-2-methanesulfonyl-benzenesulfonamide] showed an inhibition at 10 µM [1] of 73%, an inhibition at 10 µM (human FAK) of 93% and an inhibition at 10 µM (human KDR enzyme) of 64%. The inhibition at 10 µM (Aurora2 kinase) was 94%.

CC(C)c1ccc(-c2n[nH]c3ccc(NS(=O)(=O)c4ccccc4S(C)(=O)=O)cc23)cc1 [Example 201, N-[3-(4-Isopropylphenyl)-1H-indazol-5-yl]-2-methanesulfonyl-benzenesulfonamide] gave an inhibition at 10 µM [1] of 24%, an inhibition at 10 µM (human FAK) of 55% and an inhibition at 10 µM (human KDR enzyme) of 50%. The inhibition at 10 µM (Aurora2 kinase) was 82%.

CS(=O)(=O)c1ccccc1S(=O)(=O)Nc1ccc2[nH]nc(-c3ccc(O)cc3)c2c1 [Example 202, N-[3-(4-Hydroxyphenyl)-1H-indazol-5-yl]-2-methanesulfonyl-benzenesulfonamide] was tested, and the inhibition at 10 µM [1] was 83%, the inhibition at 10 µM (human FAK) was 97% and the inhibition at 10 µM (human KDR enzyme) was 79%. The inhibition at 10 µM (Aurora2 kinase) was 96%.

In the case of CC(C)c1cccc(-c2n[nH]c3ccc(NS(=O)(=O)c4ccccc4S(C)(=O)=O)cc23)c1 [Example 203, N-[3-(3-Isopropylphenyl)-1H-indazol-5-yl]-2-methanesulfonyl-benzenesulfonamide], the inhibition at 10 µM [1] is reported as 59%, the inhibition at 10 µM (human FAK) is reported as 86% and the inhibition at 10 µM (human KDR enzyme) is reported as 39%. The inhibition at 10 µM (Aurora2 kinase) was 84%.

In the case of Cc1ccc(-c2n[nH]c3ccc(NS(=O)(=O)c4ccccc4S(C)(=O)=O)cc23)cc1N [Example 204, N-[3-(3-Amino-4-methyl-phenyl)-1H-indazol-5-yl]-2-methanesulfonyl-benzenesulfonamide], the inhibition at 10 µM [1] is reported as 78%, the inhibition at 10 µM (human FAK) is reported as 97% and the inhibition at 10 µM (human KDR enzyme) is reported as 67%. It also gave an inhibition at 10 µM (Aurora2 kinase) of 95%.

CS(=O)(=O)c1ccccc1S(=O)(=O)Nc1ccc2[nH]nc(-c3ccc(Cl)c(Cl)c3)c2c1 [Example 205, N-[3-(3,4-Dichlorophenyl)-1H-indazol-5-yl]-2-methanesulfonyl-benzenesulfonamide] was tested, and the inhibition at 10 µM [1] was 66%, the inhibition at 10 µM (human FAK) was 90% and the inhibition at 10 µM (human KDR enzyme) was 42%. It also gave an inhibition at 10 µM (Aurora2 kinase) of 86%.

With CS(=O)(=O)c1ccccc1S(=O)(=O)Nc1ccc2[nH]nc(-c3ccc(OC(F)(F)F)cc3)c2c1 [Example 206, N-[3-(4-Trifluoromethoxy-phenyl)-1H-indazol-5-yl]-2-methanesulfonyl-benzenesulfonamide] the inhibition at 10 µM [1] was 61%, the inhibition at 10 µM (human FAK) was 58% and the inhibition at 10 µM (human KDR enzyme) was 48%. It also gave an inhibition at 10 µM (Aurora2 kinase) of 85%.

CC(=O)c1ccc(-c2n[nH]c3ccc(NS(=O)(=O)c4ccccc4S(C)(=O)=O)cc23)cc1 [Example 207, N-[3-(4-Acetylphenyl)-1H-indazol-5-yl]-2-methanesulfonyl-benzenesulfonamide] gave an inhibition at 10 µM [1] of 56%, an inhibition at 10 µM (human FAK) of 91% and an inhibition at 10 µM (human KDR enzyme) of 45%. It also gave an inhibition at 10 µM (Aurora2 kinase) of 94%.

CS(=O)(=O)c1ccccc1S(=O)(=O)Nc1ccc2[nH]nc(-c3cccc(Cl)c3Cl)c2c1 [Example 208, N-[3-(2,3-Dichlorophenyl)-1H-indazol-5-yl]-2-methanesulfonyl-benzenesulfonamide] gave an inhibition at 10 µM [1] of 0%, an inhibition at 10 µM (human FAK) of -1% and an inhibition at 10 µM (human KDR enzyme) of 25%. It also gave an inhibition at 10 µM (Aurora2 kinase) of 56%.

With CS(=O)(=O)c1ccccc1S(=O)(=O)Nc1ccc2[nH]nc(-c3ccc(OCc4ccccc4)cc3)c2c1 [Example 209, N-[3-(4-Benzyloxyphenyl)-1H-indazol-5-yl]-2-methanesulfonyl-benzenesulfonamide] the inhibition at 10 µM [1] was 16%, the inhibition at 10 µM (human FAK) was 55% and the inhibition at 10 µM (human KDR enzyme) was 34%. It also gave an inhibition at 10 µM (Aurora2 kinase) of 67%.

In the case of CS(=O)(=O)c1ccccc1S(=O)(=O)Nc1ccc2[nH]nc(-c3ccc(-c4ccccc4)c(F)c3)c2c1 [Example 210, N-[3-(2-Fluorobiphenyl-4-yl)-1H-indazol-5-yl]-2-methanesulfonyl-benzenesulfonamide], the inhibition at 10 µM [1] is reported as 0%, the inhibition at 10 µM (human FAK) is reported as 70% and the inhibition at 10 µM (human KDR enzyme) is reported as 50%. The inhibition at 10 µM (Aurora2 kinase) was 65%.

For CS(=O)(=O)c1ccccc1S(=O)(=O)Nc1ccc2[nH]nc(-c3cc(Br)cc(Br)c3)c2c1 [Example 211, N-[3-(3,5-Dibromophenyl)-1H-indazol-5-yl]-2-methanesulfonyl-benzenesulfonamide], the inhibition at 10 µM [1] was 45%, the inhibition at 10 µM (human FAK) was 95% and the inhibition at 10 µM (human KDR enzyme) was 21%. For the same compound, the inhibition at 10 µM (Aurora2 kinase) was 79%.

Work on CS(=O)(=O)c1ccccc1S(=O)(=O)Nc1ccc2[nH]nc(-c3ccc(Br)cc3F)c2c1 [Example 212, N-[3-(4-Bromo-2-fluoro-phenyl)-1H-indazol-5-yl]-2-methanesulfonyl-benzenesulfonamide] yielded an inhibition at 10 µM [1] of 65%, an inhibition at 10 µM (human FAK) of 72% and an inhibition at 10 µM (human KDR enzyme) of 47%. It also gave an inhibition at 10 µM (Aurora2 kinase) of 86%.

With CCSc1ccc(-c2n[nH]c3ccc(NS(=O)(=O)c4ccccc4S(C)(=O)=O)cc23)cc1 [Example 213, N-[3-(4-Ethylsulfanylphenyl)-1H-indazol-5-yl]-2-methanesulfonyl-benzenesulfonamide] the inhibition at 10 µM [1] was 77%, the inhibition at 10 µM (human FAK) was 80% and the inhibition at 10 µM (human KDR enzyme) was 68%. It also gave an inhibition at 10 µM (Aurora2 kinase) of 89%.

With COc1ccc(-c2n[nH]c3ccc(NS(=O)(=O)c4ccccc4S(C)(=O)=O)cc23)c(OC)c1OC [Example 214, 2-Methanesulfonyl-N-[3-(2,3,4-trimethoxyphenyl)-1H-indazol-5-yl]-benzenesulfonamide] the inhibition at 10 µM [1] was 21%, the inhibition at 10 µM (human FAK) was 60% and the inhibition at 10 µM (human KDR enzyme) was 56%. It also gave an inhibition at 10 µM (Aurora2 kinase) of 67%.

CS(=O)(=O)c1ccccc1S(=O)(=O)Nc1ccc2[nH]nc(-c3ccc(C#N)cc3)c2c1 [Example 216, N-[3-(4-Cyanophenyl)-1H-indazol-5-yl]-2-methanesulfonyl-benzenesulfonamide] gave an inhibition at 10 µM [1] of 86%, an inhibition at 10 µM (human FAK) of 96% and an inhibition at 10 µM (human KDR enzyme) of 32%. For the same compound, the inhibition at 10 µM (Aurora2 kinase) was 91%.

CS(=O)(=O)c1ccccc1S(=O)(=O)Nc1ccc2[nH]nc(-c3ccc(F)cc3F)c2c1 [Example 217, N-[3-(2,4-Difluorophenyl)-1H-indazol-5-yl]-2-methanesulfonyl-benzenesulfonamide] was tested, and the inhibition at 10 µM [1] was 83%, the inhibition at 10 µM (human FAK) was 95% and the inhibition at 10 µM (human KDR enzyme) was 70%. The inhibition at 10 µM (Aurora2 kinase) was 92%.

CS(=O)(=O)c1ccccc1S(=O)(=O)Nc1ccc2[nH]nc(-c3ccc(I)cc3)c2c1 [Example 218, N-[3-(4-Iodophenyl)-1H-indazol-5-yl]-2-methanesulfonyl-benzenesulfonamide] was tested, and the inhibition at 10 µM [1] was 20%, the inhibition at 10 µM (human FAK) was 15% and the inhibition at 10 µM (human KDR enzyme) was 37%. It also gave an inhibition at 10 µM (Aurora2 kinase) of 68%.

Compound CS(=O)(=O)c1ccccc1S(=O)(=O)Nc1ccc2[nH]nc(-c3cccc(OC(F)(F)F)c3)c2c1 [Example 219, N-[3-(3-Trifluoromethoxy-phenyl)-1H-indazol-5-yl]-2-methanesulfonyl-benzenesulfonamide] has an inhibition at 10 µM [1] of 60%, an inhibition at 10 µM (human FAK) of 87% and an inhibition at 10 µM (human KDR enzyme) of 31%. The inhibition at 10 µM (Aurora2 kinase) was 86%.

Compound CS(=O)(=O)c1ccc(-c2n[nH]c3ccc(NS(=O)(=O)c4ccccc4S(C)(=O)=O)cc23)cc1 [Example 220, 2-Methanesulfonyl-N-[3-(4-methanesulfonylphenyl)-1H-indazol-5-yl]-benzenesulfonamide] has an inhibition at 10 µM [1] of 75%, an inhibition at 10 µM (human FAK) of 96% and an inhibition at 10 µM (human KDR enzyme) of 88%. It also gave an inhibition at 10 µM (Aurora2 kinase) of 95%.
